Measured values from patent EP1134585B1, “Biosensor and method for the monitoring of herbicides” (CONSIGLIO NAZIONALE DELLE RICERCHE, priority 2000, dated 2001).
Like-named read-outs stand apart in the source and are kept apart here.

Key:
[1] = target: D1 protein Val219->Ile (Chlamydomonas reinhardtii, UniProt P07753, V219I); settings: code Dr2; cited from earlier work
[2] = tested on: PS II; settings: PS II treated with CdCl2, refrigeration at 5°C, flow 0,2-2,0 ml/m
Text: To further increase the stability of the biomediator the usefulness of a system for the refrigeration of the solution containing herbicide forwarded into the measuring cell experimentally was observed.

[3] = tested on: Tyr222->Phe; settings: code T4; cited from earlier work
[4] = target: D1 protein Ala250->Arg (Chlamydomonas reinhardtii, UniProt P07753, A250R); settings: cited from earlier work
[5] = target: D1 protein Ala250->Asp (Chlamydomonas reinhardtii, UniProt P07753, A250D); settings: cited from earlier work
[6] = target: D1 protein A1a250->Tyr (Chlamydomonas reinhardtii, UniProt P07753, A250Y); settings: cited from earlier work
[7] = target: D1 protein Arg257->Val (Synechocystis sp., UniProt P16033, R257V); settings: cited from earlier work
[8] = target: D1 protein Ser264->Ala (Chlamydomonas reinhardtii, UniProt P07753, S264A); settings: codes MZ1 MZ3 MZ5; cited from earlier work
[9] = target: D1 protein Ser264->Ala (Synechococcus elongatus, UniProt P04996, S264A); settings: Synechococcus sp. PCC7942, code Dil; cited from earlier work
[10] = tested on: D1 protein Ser264->Thr; settings: Euglena, code MSI; cited from earlier work
[11] = target: D1 protein Leu275->Phe (MZ4) (Chlamydomonas reinhardtii, UniProt P07753, L275F); settings: code MZ4; cited from earlier work
[12] = target: D1 protein Phe211→Gly Met214→Gln (Chlamydomonas reinhardtii, UniProt P07753, F211G/M214Q); settings: cited from earlier work
[13] = target: D1 protein Ala250→Ser Phe255→IIe (Chlamydomonas reinhardtii, UniProt P07753, A250S/F255I); settings: cited from earlier work
[14] = target: D1 protein Phe255->Tyr Ser264->Ala (Synechococcus elongatus, UniProt P04996, F255Y/S264A); settings: code D5; cited from earlier work
[15] = target: D1 protein Ser264→Ala Asn266→Thr (Chlamydomonas reinhardtii, UniProt P07753, N266T/S264A); settings: cited from earlier work
[16] = target: D1 protein I1e259->Ser Ser264->Ala Asn266->Thr (Chlamydomonas reinhardtii, UniProt P07753, I259S/N266T/S264A); settings: cited from earlier work
[17] = target: D1 protein Ala250->Asn (Chlamydomonas reinhardtii, UniProt P07753, A250N); settings: cited from earlier work
[18] = target: D1 protein A1a251→Gly (Chlamydomonas reinhardtii, UniProt P07753, A251G); settings: cited from earlier work
[19] = target: D1 protein Phe255->Tyr (Chlamydomonas reinhardtii, UniProt P07753, F255Y); settings: code Ar207+; cited from earlier work
[20] = target: D1 protein Phe255->Tyr (Synechococcus elongatus, UniProt P04996, F255Y); settings: Synachococcus PCC7942, code TyrS; cited from earlier work
[21] = target: D1 protein Phe211->Ile Met214->Gly (Chlamydomonas reinhardtii, UniProt P07753, F211I/M214G); settings: cited from earlier work
[22] = tested on: thylakoids from Amaranthus retroflexus, Wild-type; assay: Biosensor fluorescence response (Table D), wild-type biomediator; format: biochemical; settings: herbicide concentration 10^-6 M
[23] = tested on: thylakoids from Amaranthus retroflexus, Mutant; format: biochemical; settings: herbicide concentration 10^-6 M
[24] = tested on: PS II isolated from thermophilic cyanobacteria; settings: immobilized PS II, Clark electrode (Koblizek et al.); cited from earlier work
[25] = target: D1 protein A1a250->His (Chlamydomonas reinhardtii, UniProt P07753, A250H); settings: cited from earlier work
[26] = target: D1 protein A1a250→IIe (Chlamydomonas reinhardtii, UniProt P07753, A250I); settings: cited from earlier work
[27] = tested on: D1 protein Ser264->Thr; settings: Nicotiana tabacum (cell culture); cited from earlier work
[28] = tested on: D1 protein Val219->Ile Thr220->Ala Ser270->Tyr; settings: code L5; cited from earlier work

For `O=c1[nH]c2c(c(=O)n1C1CCCCC1)CCC2` [Lenacil], the “Supersensitivity R/S” value [1] is listed as “Lenacil 0,8”.
In the case of `N#Cc1cc(I)c(O)c(I)c1` [loxynil], the “sensitivity (concentration)” value [2] is given as “one order of magnitude higher”, the “Supersensitivity R/S” value [3] is given as “Iloxynil <0,01” and the “Supersensitivity R/S” value [4] is given as “loxynil 0,5”. For the same compound, the “Supersensitivity R/S” value [5] was “loxynil 0,2”, the “Supersensitivity R/S” value [6] was “loxynil 0,8” and the “Supersensitivity R/S” value [7] was “loxynil 0,8”. The “Supersensitivity R/S” value [8] was “loxynil 0,5”, the “Supersensitivity R/S” value [9] was “loxynil 0,4” and the “Supersensitivity R/S” value [10] was “loxynil 0,2”. The “Supersensitivity R/S” value [11] was “locynil 0,2”, the “Supersensitivity R/S” value [12] was “loxynil 0,8” and the “Supersensitivity R/S” value [13] was “loxynil 0,2”. The “Supersensitivity R/S” value [14] was “loxynil 0,5”, the “Supersensitivity R/S” value [15] was “loxynil 0,8” and the “Supersensitivity R/S” value [16] was “loxynil 0,13”.
For `CSc1nnc(C(C)(C)C)c(=O)n1N` [Metribuzin], the “Supersensitivity R/S” value [4] is listed as “Metribuzin 0,5”, the “Supersensitivity R/S” value [17] is listed as “Metribuzin 0,8” and the “Supersensitivity R/S” value [18] is listed as “Metribuzin 0,6”. For the same compound, the “Supersensitivity R/S” value [19] was “Metribuzin 0,6”, the “Supersensitivity R/S” value [20] was “Metribuzin 0,8” and the “Supersensitivity R/S” value [21] was 0,5. For the same compound, the “Supersensitivity R/S” value [13] was 0,5.
In the case of `N#Cc1cc(Br)c(O)c(Br)c1` [Bromoxynil], the “Area % inhibition Wild-type” value [22] is reported as 97%, the “Area % inhibition Mutant” value [23] is reported as 95% and the “sensitivity (concentration)” value [2] is reported as “one order of magnitude higher”. The sensitivity [24] was 10^-7 mol/l, the “Supersensitivity R/S” value [4] was “Bromoxynil 0,3” and the “Supersensitivity R/S” value [17] was “Bromoxynil 0,2”. The “Supersensitivity R/S” value [5] was “Bromoxynil 0,16”, the “Supersensitivity R/S” value [25] was “Bromoxynil 0,16” and the “Supersensitivity R/S” value [26] was “Bromoxynil 0,3”. For the same compound, the “Supersensitivity R/S” value [6] was “Bromoxynil 0,4”, the “Supersensitivity R/S” value [13] was 0,2 and the “Supersensitivity R/S” value [14] was 0,8.
For `CCC(C)c1cc([N+](=O)[O-])cc([N+](=O)[O-])c1O` (stereo not shown) [Dinoseb], the “Area % inhibition Wild-type” value [22] is listed as 99%, the “Area % inhibition Mutant” value [23] is listed as 93% and the “Supersensitivity R/S” value [27] is listed as “Dinoseb 0,13”. For the same compound, the “Supersensitivity R/S” value [14] was 0,08 and the “Supersensitivity R/S” value [28] was “Dinoseb 0,7”.
